Source: patent publication US6369088B2, “Substituted 3-phenyl-5-alkoxy-1,3,4-oxadiazol-2-ones, their preparation and their use as pharmaceuticals” (Aventis Pharma Deutschland GmbH, priority 2000, dated 2002)

melting point	SMILES
127 °C	COc1nn(-c2ccc([N+](=O)[O-])c(F)c2)c(=O)o1
145 °C	COc1nn(-c2ccc(NC(=O)Oc3ccccc3)c(C)c2)c(=O)o1
112 °C	COc1nn(-c2ccc([N+](=O)[O-])c(C)c2)c(=O)o1 [Example 20, 5-Methoxy-3-(3-methyl-4-nitrophenyl)-3H-(1,3,4)oxadiazol-2-one]
111 °C	COc1nn(-c2ccc([N+](=O)[O-])cc2C)c(=O)o1 [Example 23, 5-Methoxy-3-(2-methyl-4-nitrophenyl)-3H-(1,3,4)oxadiazol-2-one]
190 °C	COc1nn(-c2ccc(NC(=O)Cc3ccc(Cl)cc3)c(C)c2)c(=O)o1 [Example 31, 5-Methoxy-3-(4-(4-chlorophenylacetylamino)-3-methylphenyl)-3H-(1,3,4)oxadiazol-2-one]
137 °C	COc1nn(-c2ccc(NC(=O)CCCCl)c(C)c2)c(=O)o1 [Example 35, 5-Methoxy-3-(4-(4-chlorobutanoylamino)-3-methylphenyl)-3H-(1,3,4)oxadiazol-2-one]
157 °C	COc1nn(-c2ccc(NC(=O)C(C)(C)C)c(C)c2)c(=O)o1 [Example 36, 5-Methoxy-3-(4-pivaloylamino-3-methylphenyl)-3H-(1,3,4)oxadiazol-2-one]
151 °C	COc1nn(-c2ccc(NS(=O)(=O)CC(F)(F)F)c(C)c2)c(=O)o1 [Example 40, 5-Methoxy-3-(4-(2,2,2-trifluoroethylsulfonylamino)-3-methylphenyl)-3H-(1,3,4)oxadiazol-2-one]
71 °C	COc1nn(-c2ccc(N(C)C)c(C)c2)c(=O)o1 [Example 50, 5-Methoxy-3-(4-dimethylamino-3-methylphenyl)-3H-(1,3,4)oxad iazol-2-one]

More lines, now with the values behind:

SMILES	melting point
COc1nn(-c2ccc([N+](=O)[O-])c(OCc3ccc(F)cc3)c2)c(=O)o1 [Example 24, 5-Methoxy-3-(3-(4-fluorobenzyloxy)-4-nitrophenyl)-3H-(1,3,4)oxadiazol-2-one]	137 °C
COc1nn(-c2ccc(Oc3ccc(Cl)cc3)c(N)c2)c(=O)o1 [Example 27, 5-Methoxy-3-(3-amino-4-(4-chlorophenoxy)phenyl)-3H-(1,3,4)oxadiazol-2-one]	133 °C
COc1nn(-c2ccc(N)c(OCc3ccc(F)cc3)c2)c(=O)o1 [Example 29, 5-Methoxy-3-(4-amino-3-(4-fluorobenzyloxy)phenyl)-3H-(1,3,4)oxadiazol-2-one]	195 °C
COc1nn(-c2ccc(NS(=O)(=O)c3ccc(Cl)cc3)cc2)c(=O)o1 [Example 43, 5-Methoxy-3-(4-(4-chlorophenylsulfonylamino)phenyl)-3H-(1,3,4)oxadiazol-2-one]	169 °C
COc1nn(-c2ccc(NS(=O)(=O)c3ccccc3Cl)cc2)c(=O)o1 [Example 44, 5-Methoxy-3-(4-(2-chlorophenylsulfonylamino)phenyl)-3H-(1,3,4)oxadiazol-2-one]	171 °C
COc1nn(-c2ccc(NS(=O)(=O)c3cccc(Cl)c3)cc2)c(=O)o1 [Example 45, 5-Methoxy-3-(4-(3-chlorophenylsulfonylamino)phenyl)-3H-(1,3,4)oxadiazol-2-one]	141 °C
COc1nn(-c2ccc(NC(=O)Cc3ccc(Cl)cc3)c(OCc3ccc(F)cc3)c2)c(=O)o1 [Example 46, 5-Methoxy-3-(4-(4-chlorophenylacetylamino)-3-(4-fluorobenzyloxy)phenyl)-3H-(1,3,4)oxadiazol-2-one]	167 °C
COc1nn(-c2ccc(NS(=O)(=O)Cc3ccccc3)cc2)c(=O)o1 [Example 47, 5-Methoxy-3-(4-benzylsulfonylaminophenyl)-3H-(1,3,4)oxadiazol-2-one]	153 °C
COc1nn(-c2ccc(NS(=O)(=O)C(C)C)cc2)c(=O)o1 [Example 49, 5-Methoxy-3-(4-isopropylsulfonylaminophenyl)-3H-(1,3,4)oxadiazol-2-one]	190 °C
